Measurements as given in patent US8063028B2, “Heterocyclic antiviral compounds” (Roche Palo Alto LLC, priority 2007, dated 2011).
Counter-ions that a name gives are not always drawn.

Test system: not given
Assay: not given
Details: not given
Work on `CCOC(=O)n1nc(Cc2ccc(Br)c(Oc3cc(Cl)cc(C#N)c3)c2F)c2ccnnc21` [Compound I-11, 3-[4-Bromo-3-(3-chloro-5-cyano-phenoxy)-2-fluoro-benzyl]-pyrazolo[3,4-c]pyridazine-1-carboxylic acid ethyl ester] yielded a melting point of 139 to 140 °C.
Compound `CC(C)C(=O)n1nc(Cc2ccc(Br)c(Oc3cc(Cl)cc(C#N)c3)c2F)c2ccnnc21` [Compound I-21, 3-[6-Bromo-2-fluoro-3-(1-isobutyryl-1H-pyrazolo[3,4-c]pyridazin-3-ylmethyl)-phenoxy]-5-chloro-benzonitrile] has a melting point of 157.7 to 159.3 °C.
With `CC(=O)n1nc(Cc2ccc(Br)c(Oc3cc(Cl)cc(C#N)c3)c2F)c2ccnnc21` [Compound I-16, 3-[3-(1-Acetyl-1H-pyrazolo[3,4-c]pyridazin-3-ylmethyl)-6-bromo-2-fluoro-phenoxy]-5-chloro-benzonitrile] the melting point was 195.5 to 196.9 °C.
Compound `CC(CN(C)C)OC(=O)n1nc(Cc2ccc(Br)c(Oc3cc(Cl)cc(C#N)c3)c2F)c2ccnnc21` (centres unmarked) (as salt: hydrochloride) [Compound I-13, 3-[4-Bromo-3-(3-chloro-5-cyano-phenoxy)-2-fluoro-benzyl]-pyrazolo[3,4-c]pyridazine-1-carboxylic acid 2-dimethylamino-1-methyl-ethyl ester] has a melting point of 119 to 122 °C.
Work on `N#Cc1cc(C#N)cc(Oc2c(Cl)ccc(Cc3nn(COC(=O)CCC(=O)O)c4nnccc34)c2F)c1` [Compound I-12, Succinic acid mono-{3-[4-chloro-3-(3,5-dicyano-phenoxy)-2-fluoro-benzyl]-pyrazolo[3,4-c]pyridazin-1-ylmethyl}ester] yielded a melting point of 166.1 to 169.9 °C.
For `N#Cc1cc(Cl)cc(Oc2c(Br)ccc(Cc3nn(COC(=O)CCCCC(=O)O)c4nnccc34)c2F)c1` [Compound I-15, Hexanedioic acid mono-{3-[4-bromo-3-(3-chloro-5-cyano-phenoxy)-2-fluoro-benzyl]-pyrazolo[3,4-c]pyridazin-1-ylmethyl}ester], the melting point was 159 to 160 °C.
`N#Cc1cc(Cl)cc(Oc2c(Br)ccc(Cc3nn(COC(=O)CCC(=O)O)c4nnccc34)c2F)c1` (as salt: sodium) [Compound I-3, Succinic acid mono-{3-[4-bromo-3-(3-chloro-5-cyano-phenoxy)-2-fluoro-benzyl]-pyrazolo[3,4-c]pyridazin-1-ylmethyl}ester] showed a melting point of 172.6 to 173.9 °C.
Work on `N#Cc1cc(Cl)cc(Oc2c(Br)ccc(Cc3nn(COC(=O)COCC(=O)O)c4nnccc34)c2F)c1` [Compound I-10, {3-[4-Bromo-3-(3-chloro-5-cyano-phenoxy)-2-fluoro-benzyl]-pyrazolo[3,4-c]pyridazin-1-ylmethoxycarbonylmethoxy}-acetic acid] yielded a melting point of 146 to 147 °C.
`N#Cc1cc(C#N)cc(Oc2c(Br)ccc(Cc3nn(COC(=O)CCC(=O)O)c4nnccc34)c2F)c1` [Compound I-4, Succinic acid mono-{3-[4-bromo-3-(3,5-dicyano-phenoxy)-2-fluoro-benzyl]-pyrazolo[3,4-c]pyridazin-1-ylmethyl}ester] gave a melting point of 175.2 to 176.5 °C.
Work on `N#Cc1cc(Cl)cc(Oc2c(Cl)ccc(Cc3nn(COC(=O)CCCC(=O)O)c4nnccc34)c2F)c1` [Compound I-14, Pentanedioic acid mono-{3-[4-chloro-3-(3-chloro-5-cyano-phenoxy)-2-fluoro-benzyl]-pyrazolo[3,4-c]pyridazin-1-ylmethyl}ester] yielded a melting point of 176 to 178 °C.
With `N#Cc1cc(Cl)cc(Oc2c(Cl)ccc(Cc3nn(COC(=O)CCC(=O)O)c4nnccc34)c2F)c1` [Compound I-5, Succinic acid mono-{3-[4-chloro-3-(3-chloro-5-cyano-phenoxy)-2-fluoro-benzyl]-pyrazolo[3,4-c]pyridazin-1-ylmethyl}ester] the melting point was 173 to 174.8 °C.
Work on `N#Cc1cc(Cl)cc(Oc2c(Br)ccc(Cc3nn(COC(=O)CCCC(=O)O)c4nnccc34)c2F)c1` [Compound I-7, Pentanedioic acid mono-{3-[4-bromo-3-(3-chloro-5-cyano-phenoxy)-2-fluoro-benzyl]-pyrazolo[3,4-c]pyridazin-1-ylmethyl}ester] yielded a melting point of 149.8 to 150.7 °C.
With `N#Cc1cc(Cl)cc(Oc2c(Br)ccc(Cc3nn(COC(=O)CCC(=O)O)c4ncccc34)c2F)c1` [Compound I-1, Succinic acid mono-{3-[4-bromo-3-(3-chloro-5-cyano-phenoxy)-2-fluoro-benzyl]-pyrazolo[3,4-b]pyridin-1-ylmethyl}ester] the melting point was 183 to 184 °C.
In the case of `CC(=O)OCn1nc(Cc2ccc(Br)c(Oc3cc(Cl)cc(C#N)c3)c2F)c2ccnnc21` [Compound I-8, Acetic acid 3-[4-bromo-3-(3-chloro-5-cyano-phenoxy)-2-fluoro-benzyl]-pyrazolo[3,4-c]pyridazin-1-ylmethyl ester], the melting point is reported as 71.1 to 73 °C.
Work on `COC(=O)n1nc(Cc2ccc(Br)c(Oc3cc(Cl)cc(C#N)c3)c2F)c2ccnnc21` [Compound I-6, 3-[4-Bromo-3-(3-chloro-5-cyano-phenoxy)-2-fluoro-benzyl]-pyrazolo[3,4-c]pyridazine-1-carboxylic acid methyl ester] yielded a melting point of 164 to 165 °C.
With `CC(C)[C@H](N)C(=O)OCn1nc(Cc2ccc(Br)c(Oc3cc(Cl)cc(C#N)c3)c2F)c2ccnnc21.Cl` [Compound I-9, (S)-2-Amino-3-methyl-butyric acid 3-[4-bromo-3-(3-chloro-5-cyano-phenoxy)-2-fluoro-benzyl]-pyrazolo[3,4-c]pyridazin-1-ylmethyl ester] the melting point was 155 to 156 °C.
`N#Cc1cc(Cl)cc(Oc2c(Br)ccc(Cc3nn(C(=O)c4cccnc4)c4nnccc34)c2F)c1` [Compound I-17, 3-{6-Bromo-2-fluoro-3-[1-(pyridine-3-carbonyl)-1H-pyrazolo[3,4-c]pyridazin-3-ylmethyl]-phenoxy}-5-chloro-benzonitrile] showed a melting point of 187.7 to 188.5 °C.
In the case of `CC(C)OC(=O)n1nc(Cc2ccc(Br)c(Oc3cc(Cl)cc(C#N)c3)c2F)c2ccnnc21` [Compound I-20, 3-[4-Bromo-3-(3-chloro-5-cyano-phenoxy)-2-fluoro-benzyl]-pyrazolo[3,4-c]pyridazine-1-carboxylic acid isopropyl ester], the melting point is reported as 166.1 to 166.9 °C.

Target: HIV-1 RT (Human immunodeficiency virus type 1 group M subtype B, UniProt P04585)
Assay: HIV reverse transcriptase assay, inhibitor IC50 determination
Type: biochemical
Details: purified recombinant enzyme, poly(rA)/oligo(dT)16 template-primer, 37° C. 30 min
Description: Reactions were initiated by adding 4 nM HIV-1 RT and after incubation at 37° C. for 30 min, they were stopped by the addition of 50 μl ice cold 20% TCA and allowed to precipitate at 4° C. for 30 min. The precipitates were collected by applying vacuum to the plate and sequentially washing with 3×200 μl of 10% TCA and 2×200 μl 70% ethanol. Finally, the plates were dried and radioactivity counted in a Packard TopCounter after the addition of 25 μl scintillation fluid per well. IC50's were calculated by plotting % inhibition versus log10 inhibitor concentrations. Representative IC50 data is depicted in TABLE 2.
In the case of `N#Cc1cc(Cl)cc(Oc2c(Cl)ccc(Cc3nn(COC(=O)CCC(=O)O)c4nnccc34)c2F)c1` [Compound I-5, Succinic acid mono-{3-[4-chloro-3-(3-chloro-5-cyano-phenoxy)-2-fluoro-benzyl]-pyrazolo[3,4-c]pyridazin-1-ylmethyl}ester], the IC50 is reported as 7.4 nM.
In the case of `N#Cc1cc(Cl)cc(Oc2c(Br)ccc(Cc3nn(COC(=O)CCC(=O)O)c4nnccc34)c2F)c1` [Compound I-3, Succinic acid mono-{3-[4-bromo-3-(3-chloro-5-cyano-phenoxy)-2-fluoro-benzyl]-pyrazolo[3,4-c]pyridazin-1-ylmethyl}ester], the IC50 is reported as 4.9 nM.
